Laboratory results: patent publication US8404708B2, “Dual NK1/NK3 receptor antagonists” (Hoffmann-La Roche Inc., priority 2004, dated 2013)

Experiments:
human NK1 receptor = human NK1 receptor (Homo sapiens, UniProt P25103); assay: NK1 receptor binding, [3H]substance P displacement, CHO cell membranes; conditions: first value of the cell pKi NK1/NK3; human NK1 receptor, [3H]substance P
[1] = molecular target: T1, Recombinant human NK3 (hNK3) receptor (Homo sapiens, UniProt P29371); assay: NK3 receptor binding, [3H]SR142801 displacement, membrane preparations; conditions: second value of the cell pKi NK1/NK3; hNK3 receptor, [3H]SR142801
T1 construct: expressed in transfected cells
T1 sequence (P29371 1-465): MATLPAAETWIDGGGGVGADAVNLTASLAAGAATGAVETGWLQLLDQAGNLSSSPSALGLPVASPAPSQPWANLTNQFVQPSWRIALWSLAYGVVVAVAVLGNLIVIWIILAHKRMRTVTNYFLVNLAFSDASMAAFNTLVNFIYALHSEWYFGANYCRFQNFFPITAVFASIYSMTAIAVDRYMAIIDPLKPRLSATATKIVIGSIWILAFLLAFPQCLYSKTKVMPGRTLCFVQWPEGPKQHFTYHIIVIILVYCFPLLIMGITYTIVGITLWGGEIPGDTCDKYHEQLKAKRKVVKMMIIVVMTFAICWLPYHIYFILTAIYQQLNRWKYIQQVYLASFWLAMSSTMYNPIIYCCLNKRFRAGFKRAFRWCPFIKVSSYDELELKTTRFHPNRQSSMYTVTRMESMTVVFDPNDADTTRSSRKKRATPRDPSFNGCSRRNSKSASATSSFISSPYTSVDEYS
Procedure: Non specific binding was determined using 10 μM SB222200. Assay buffer consisted of Tris-HCl (50 mM, pH 7.4), BSA (0.1%), MnCl2 (4 mM) and phosphoramidon (1 μM). Membrane preparations of hNK3 receptors (approximately 2.5 μg/well in a 96 well plate) were used to initiate the incubation for 90 min at room temperature. This assay was terminated by rapid filtration under vacuum through GF/C filters, presoaked for 90 min with PEI (0.3%), with 3×0.5 ml washes of ice-cold Tris buffer (50 mM, pH 7.4) containing 0.1% BSA. The radioactivity retained on the filters was measured by scintillation counting. All assays were performed in duplicate in at least two separate experiments.

Sequence of human NK1 receptor (P25103 whole entry): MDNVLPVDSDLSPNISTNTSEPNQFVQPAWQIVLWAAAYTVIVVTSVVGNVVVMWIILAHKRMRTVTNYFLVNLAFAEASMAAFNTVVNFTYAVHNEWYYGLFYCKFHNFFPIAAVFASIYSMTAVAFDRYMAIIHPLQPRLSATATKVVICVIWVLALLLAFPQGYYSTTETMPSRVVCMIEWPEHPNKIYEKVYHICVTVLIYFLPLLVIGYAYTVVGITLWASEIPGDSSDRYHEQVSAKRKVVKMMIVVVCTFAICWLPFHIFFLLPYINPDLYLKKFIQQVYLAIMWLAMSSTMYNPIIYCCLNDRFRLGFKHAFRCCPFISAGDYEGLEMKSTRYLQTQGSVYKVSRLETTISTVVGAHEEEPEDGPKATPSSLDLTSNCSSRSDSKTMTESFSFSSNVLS

Compound	Ki (human NK1 receptor) [nM]	Ki [1] [nM]
COc1cc(Cl)cc(C(C)(C)C(=O)N(C)c2cnc(N3C[C@H](O)C[C@H]3CO)cc2-c2ccccc2Cl)c1 [Example 8, (2S,4R)-2-(3-Chloro-5-methoxy-phenyl)-N-[4-(2-chloro-phenyl)-6-(4-hydroxy-2-hydroxymethyl-pyrrolidin-1-yl)-pyridin-3-yl]-N-methyl-isobutyramide]	1.7	1.26
Cc1cc(C)cc(C(C)(C)C(=O)N(C)c2cnc(N3CCC[C@H]3CO)cc2-c2ccccc2Cl)c1 [Example 9, (S)-N-[4-(2-Chloro-phenyl)-6-(2-hydroxymethyl-pyrrolidin-1-yl)-pyridin-3-yl]-2-(3,5-dimethyl-phenyl)-N-methyl-isobutyramide]	6.46	3.63
Cc1cc(C)cc(C(C)(C)C(=O)N(C)c2cnc(N3C[C@H](O)C[C@H]3CO)cc2-c2ccccc2Cl)c1 [Example 10, (2S,4R)-N-[4-(2-Chloro-phenyl)-6-(4-hydroxy-2-hydroxymethyl-pyrrolidin-1-yl)-pyridin-3-yl]-2-(3,5-dimethyl-phenyl)-N-methyl-isobutyramide]	2.14	3.63
Cc1ccccc1-c1cc(N2CCC[C@H]2CO)ncc1N(C)C(=O)C(C)(C)c1cc(Cl)cc(Cl)c1 [Example 11, (S)-2-(3,5-Dichloro-phenyl)-N-[6-(2-hydroxymethyl-pyrrolidin-1-yl)-4-o-tolyl-pyridin-3-yl]-N-methyl-isobutyramide]	1.78	1.1
Cc1ccccc1-c1cc(N2C[C@H](O)C[C@H]2CO)ncc1N(C)C(=O)C(C)(C)c1cc(Cl)cc(Cl)c1 [Example 12, (2S,4R)-2-(3,5-Dichloro-phenyl)-N-[6-(4-hydroxy-2-hydroxymethyl-pyrrolidin-1-yl)-4-o-tolyl-pyridin-3-yl]-N-methyl-isobutyramide]	1.12	1.38
Cc1ccccc1-c1cc(N2CCC[C@H]2CO)ncc1N(C)C(=O)C(C)(C)c1cc(F)cc(C(F)(F)F)c1 [Example 13, (S)-2-(3-Fluoro-5-trifluoromethyl-phenyl)-N-[6-(2-hydroxymethyl-pyrrolidin-1-yl)-4-o-tolyl-pyridin-3-yl]-N-methyl-isobutyramide]	2.19	1.55
Cc1ccccc1-c1cc(N2CCC[C@H]2CO)ncc1N(C)C(=O)C(C)(C)c1cc(F)cc(F)c1 [Example 15, (S)-2-(3,5-Difluoro-phenyl)-N-[6-(2-hydroxymethyl-pyrrolidin-1-yl)-4-o-tolyl-pyridin-3-yl]-N-methyl-isobutyramide]	6.31	4.47
Cc1ccccc1-c1cc(N2C[C@H](O)C[C@H]2CO)ncc1N(C)C(=O)C(C)(C)c1cc(F)cc(F)c1 [Example 16, (2S,4R)-2-(3,5-Difluoro-phenyl)-N-[6-(4-hydroxy-2-hydroxymethyl-pyrrolidin-1-yl)-4-o-tolyl-pyridin-3-yl]-N-methyl-isobutyramide]	2.63	4.07
COc1cc(Cl)cc(C(C)(C)C(=O)N(C)c2cnc(N3CCC[C@H]3CO)cc2-c2ccccc2C)c1 [Example 17, (S)-2-(3-Chloro-5-methoxy-phenyl)-N-[6-(2-hydroxymethyl-pyrrolidin-1-yl)-4-o-tolyl-pyridin-3-yl]-N-methyl-isobutyramide]	3.89	3.16
COc1cc(Cl)cc(C(C)(C)C(=O)N(C)c2cnc(N3C[C@H](O)C[C@H]3CO)cc2-c2ccccc2C)c1 [Example 18, (2S,4R)-2-(3-Chloro-5-methoxy-phenyl)-N-[6-(4-hydroxy-2-hydroxymethyl-pyrrolidin-1-yl)-4-o-tolyl-pyridin-3-yl]-N-methyl-isobutyramide]	1.17	2.51
Cc1cc(C)cc(C(C)(C)C(=O)N(C)c2cnc(N3CCC[C@H]3CO)cc2-c2ccccc2C)c1 [Example 19, (S)-2-(3,5-Dimethyl-phenyl)-N-[6-(2-hydroxymethyl-pyrrolidin-1-yl)-4-o-tolyl-pyridin-3-yl]-N-methyl-isobutyramide]	2.95	5.13
